According to article PMC12077799, “Fragment-based drug discovery for transthyretin kinetic stabilisers using a novel capillary zone electrophoresis method” (PLOS One, 2025):
Where two headings read alike, the source gives them in different places. Each block holds one compound with its values, some of them ahead of it.

Columns and labels:
[1] = biological target: T1, Human transthyretin (TTR) thyroxine binding sites (Homo sapiens, UniProt P02766); test: TTR CZE Free Probe Peak Height Restoration (FPPHR) assay, 8-ANS displacement; details: for change of free 8-ANS peak height with compound in the Running Buffer: in words, concentrations (e.g. Tafamidis 10 µM, Diphenylamine 250 μM, Verapamil 300 µM, Acetazolamide 500 µM); for FPPHR % at 50 μM: compound 50 μM in Running Buffer; for FPPHR % at 50 μM / FPPHR % tested at 10 µM / FPPHR % at 100 μM: 10% minimum for a binder; for FPPHR % tested at 10 µM: compound 10 µM in Running Buffer; for FPPHR % at 100 μM: compound 100 μM in Running Buffer
T1 construct: purchased SCIPAC (Sittingbourne, Kent, UK) P171-1
Description: CZE assays development and fragment screening were performed on a Beckman P/ACE MDQ capillary electrophoresis system (Beckman Coulter Inc., Brea, CA) operated by 32 Karat™ software. All capillaries (Polymicro Technologies, Phoenix, AZ) used were internally coated with polyvinyl alcohol and of around 30 cm in length, 75 microns in internal diameter. Capillary temperature was maintained at 20 °C by recirculating fluorinated fluid coolant during electrophoresis. Sample trays and buffer trays temperature were maintained at 4°C and ambient respectively. For every electrophoretic run, the capillary was pressure rinsed and prefilled with electrophoresis buffer also known as background electrolyte (termed as Running Buffer hereafter) before injection. After each electrophoretic run, the capillary was rinsed with Running Buffer and H2O by pressure (20 psi for 1 minute). Three Running Buffers (RB), A: 20 mM Tris pH 7.5, 1 mM KCl, 1.62 mM NaCl; B: 20 mM HEPES pH 7.0, 2 mM CaCl2 and C: 20 mM HEPES pH 7.0, 2 mM CaCl2, 1% DMSO were used. All CE traces were analysed by 32Karat™ Software with a built-in automatic peak integration algorithm.
Control 1 Inject Buffer (IB) containing 30 μM 8-ANS was prepared by mixing 1 μL of 3 mM 8-ANS DMSO stock with 99 μL of Running Buffer B in a 0.2 mL PCR tube. Control 2 Inject Buffer was prepared by mixing 1μL of 3 mM 8-ANS DMSO stock with 20 μL of 100 μM tetrameric TTR stock in Running Buffer B and 79 μL of Running Buffer B. The final concentrations (f/c) were 8-ANS 30 μM, TTR 20 μM and 1% DMSO v/v.
The maximum Free Probe Peak Height (Control 1 Peak Height) was determined by Outlet Injection (see Fig 1) of Control 1 with an injection pressure of 0.5 psi for 5 seconds (equivalent to ≈ 20–30 nL). An identical injection of Control 2 provides the minimum Free Probe Peak Height (Control 2 Peak Height) enabling calculation of % of bound and unbound, i.e., free 8-ANS. To determine the 8-ANS peak height in Control 1 and Control 2, the capillary was prefilled with Buffer C and electrophoresis carried out at 10 kV (Normal Polarity, Fig 1) with UV monitoring at 230 nm. For displacement analysis, ligand DMSO stock was diluted in Buffer B and used to fill the capillary as the Running Buffer. Electrophoresis commenced after injection of Control 2, thus the injected 8-ANS-TTR complex migrates inside a capillary filled with the test ligand. The observed 8-ANS peak height is defined as Sample Peak Height and the displaced 8-ANS can be calculated as:
\% of Free Probe Peak Height Restoration= Sample Peak Height−Control 2 Peak Height/Control 1 Peak Height−Control 2 Peak Height

[2] = biological target: T2, TTR in undiluted normal human reference plasma (Homo sapiens, UniProt P02766); test: 125I-T4 displacement assay in neat normal human plasma; format: binding; details: for IC50: neat normal human plasma, 4-parameter logistic fit
T2 construct: The TTR in plasma was immunoprecipitated by sheep anti-human prealbumin polyclonal antibody; tissue Precision Biologic Inc., Nova Scotia, Canada
Excerpt: The assay was adapted from one described previously. Briefly, test ligand and ^125I-T4 (Perkin Elmer Inc., Waltham, MA) were mixed with undiluted normal human reference plasma (Precision Biologic Inc., Nova Scotia, Canada). The TTR in plasma was immunoprecipitated by sheep anti-human prealbumin polyclonal antibody (The Binding Site Group Ltd., Birmingham, UK). The immunoprecipitate was washed with buffer and their radioactivity measured with a 2470 WIZARD automatic gamma counter (Perkin Elmer Inc., Waltham, MA). […] Percentage of total radioligand binding for samples of different ligand concentration was then calculated as follows: […]
To calculate IC50 values, percentage of total radioligand binding at different concentration points were entered in SigmaPlot™ 11.0. Titration curves were done in triplicates with a minimum of 5 data points fitted by 4-Parameter Logistic Function.

[3] = biological target: T3, Human transthyretin (TTR) (Homo sapiens, UniProt P02766); test: Co-crystallisation of TTR-ligand complex, X-ray hit confirmation; format: binding; details: for ligand electron density, binding sites occupied in co-crystal structure: in words; for Confirmed by X-ray: fragment seen in ligand-omitted difference density at >= 2σ in one or both binding sites, full or partial density
T3 construct: purchased SCIPAC (Sittingbourne, Kent, UK) P171-1
Description: Crystals were grown by vapor diffusion using a published crystallisation cocktail (100 mM HEPES pH 7.5, 200 mM CaCl2, 28% v/v PEG400) at 21 °C [29]. The hanging drop contained 1 μL of crystallisation cocktail, 1 μL of diluted ligand and 1 μL of TTR protein solution (85 μM). […] Crystals were harvested and flash cooled in a N2 cryostream or dipped into liquid ethane without cryoprotectant. Data was collected at Diamond Light Source (Oxon, UK) beamline I24, I04 or I04-1 (Pilatus 6M or ADSC Q315) or the European Synchrotron Radiation Facility (ESRF, Grenoble, France) beamline ID29 (Pilatus 6M-F) or in-house (Bruker X8 Diffractometer with APEXII CCD detector). Crystal unit cell was initially indexed by software MOSFLM [30] and LABELIT [31] within the EDNA [32] automatic data processing workflow. Diffraction image integration was performed by XDS [33] and reflection intensities were scaled by SCALA [34] or by PROTEUM2 if collected in-house. Phases were obtained by molecular replacement method using PHASER [35], 1DVQ from the Protein Data Bank (PDB) was used as the search model. Atomic positions of the initial model were refined by REFMAC5 [36]. Model building and ligand fitting was completed using COOT [37]. Model graphics were generated using CCP4MG [38]. Crystallographic statistics of all structures can be found in S4 Table.

TTR = biological target: T4, TTR (Homo sapiens, UniProt P02766); test: Isothermal titration calorimetry (ITC); format: binding; details: for Kd: 25 °C, PBS pH 7.8, 3% DMSO
T4 construct: purchased SCIPAC (Sittingbourne, Kent, UK) P171-1
Description: All ITC experiments were conducted on an iTC200 calorimeter (GE Healthcare), and the settings were 25 °C, stir at 1000 RPM, 1–2 μL injection spaced with 100–150 seconds, reference power: 6 μcal/sec. Isotherms were fitted using ORIGIN 7 software (OriginLab, MA, USA). To prepare TTR ITC protein solution (5 mL), purified and freeze-dried human TTR was weighted and dissolved in 310 μL of pure water. The reconstituted protein solution was then desalted by spin column (Bio-Rad, Bio-Gel P6) and the eluted volume was transferred to a 15mL falcon tube. The protein solution was further diluted with 10x Phosphate Buffered Saline (PBS, 500 μL), DMSO (150 μL) and water, (f/c: 4.3 mM Na2HPO4, 137 mM NaCl, 2.7 mM KCl, 1.47 mM KH2PO4, 3% DMSO v/v, TTR 19.35–25 μM, pH 7.8). UV A260/280 was measured to obtain the actual protein concentration using a calculated extinction coefficient of 18450 M^-1 cm^-1. To prepare ligand ITC solution (1 mL), 30 μL of ligand stock in DMSO was diluted with 10x PBS (100 μL) and water (f/c: 4.3 mM Na2HPO4, 137 mM NaCl, 2.7 mM KCl, 1.47 mM KH2PO4, 3% DMSO v/v, Ligand 280–600 μM, pH 7.8).

[4] = read-out: Mean 125I-T4 IC50 ± SD (N = 3)
[5] = N = number of non-hydrogen atoms

- change of free 8-ANS peak height with compound in the Running Buffer [1]: changed minimally
Compound: Nc1ccccc1S(N)(=O)=O [2-Aminobenzenesulphonamide, reference compound]

Compound: Nc1cc(Cl)cc(Cl)c1 [3,5-Dichloroaniline, reference compound]
- change of free 8-ANS peak height with compound in the Running Buffer [1]: significant free 8-ANS peak height increase
- IC50 [2]: 802 ± 319 µM
- 125I-T4 displacement at plateau ([2]; neat plasma, exemplary curve): 60%
- total radioligand binding at plateau ([2]; neat plasma, exemplary curve): around 40%
- ligand electron density, binding sites occupied in co-crystal structure [3]: only observed in one site

Compound: Nc1cc(Cl)c(O)c(Cl)c1 [4-Amino-2,6-Dichlorophenol, reference compound]
- change of free 8-ANS peak height with compound in the Running Buffer [1]: significant free 8-ANS peak height increase

- change of free 8-ANS peak height with compound in the Running Buffer [1]: changed minimally
Compound: CC(=O)Nc1nnc(S(N)(=O)=O)s1 [Acetazolamide, reference compound]

- FPPHR % at 50 μM [1]: 36.17% tested at 50 µM
- IC50 [2, 4]: 100 ± 11 µM
- Confirmed by X-ray [3]: Yes 9H7L
Compound: Nc1n[nH]c2nccc(-c3ccccc3)c12 [CDS014361]

- FPPHR % at 50 μM [1]: 25.63%
Compound: Cc1[nH]ncc1-c1ccccc1 [Compound 12T-0222]

- FPPHR % at 50 μM [1]: 12.83%
Compound: Clc1cc2cc[nH]c2cn1 [Compound 217869]

- FPPHR % at 50 μM [1]: 5.03%
Compound: c1cc2[nH]ccc2cn1 [Compound 218458]

- FPPHR % at 50 μM [1]: 25.65%
Compound: Nc1[nH]ncc1-c1ccc(Cl)cc1 [Compound 242212]

- FPPHR % at 50 μM [1]: 7.85%
Compound: c1cnc2[nH]ccc2c1 [Compound 242506]

- FPPHR % tested at 10 µM [1]: 22.71% tested at 10 µM
Compound: Clc1ccc2c(-c3cc[nH]n3)ccnc2c1 [Compound 63633004]

- FPPHR % tested at 10 µM [1]: 17.07% tested at 10 µM
- IC50 [2, 4]: 238 ± 118 µM
- Confirmed by X-ray [3]: Yes 9H7N
Compound: Cc1n[nH]c(-c2ccnc3ccccc23)n1 [Compound 71575026]

- FPPHR % tested at 10 µM [1]: 10.85% tested at 10 µM
Compound: c1ccc2c(-c3nnc4cnccn34)ccnc2c1 [Compound 86471824]

- FPPHR % tested at 10 µM [1]: 23.20% tested at 10 µM
- IC50 [2, 4]: 105 ± 16.8 µM
- Confirmed by X-ray [3]: Yes 9H7M
Compound: Nc1nc(-c2cccc3cccnc23)c2cn[nH]c2n1 [Compound 96299361]

- FPPHR % at 50 μM [1]: 16.40%
Compound: COC(=O)c1c[nH]c2ccccc12 [Compound A00010562]

- FPPHR % at 50 μM [1]: 3.73%
Compound: c1cc2cc[nH]c2cn1 [Compound A00010944]

- FPPHR % at 50 μM [1]: 24.84%
Compound: Clc1n[nH]c2ccccc12 [Compound A00014954]

- FPPHR % at 50 μM [1]: 14.93%
Compound: c1ccc(-c2cn[nH]c2)cc1 [Compound Z1013760930]

Compound: c1ccc(Nc2ccccc2)cc1 [Diphenylamine, reference compound]
- change of free 8-ANS peak height with compound in the Running Buffer [1]: significant free 8-ANS peak height increase

- IC50 [2]: 180 ± 61.8 µM
- ligand electron density, binding sites occupied in co-crystal structure [3]: occupied both sites
Compound: O=C(O)c1ccccc1Nc1ccccc1 [N-Phenylanthranilic Acid, reference compound]

- FPPHR % at 50 μM [1]: 13.28%
Compound: Nc1[nH]ncc1-c1ccccc1 [OR1969]

- Kd (TTR; read-out: ITC Kd1 ± SD (N = 3)): 0.0497 µM
- Kd (TTR; read-out: ITC Kd2 ± SD (N = 3)): 0.331 µM
- Kd1 LE (Ligand Efficiency, ΔG/N) (TTR; [5]): 0.59 kcal/mol
- Kd2 LE (Ligand Efficiency, ΔG/N) (TTR; [5]): 0.52 kcal/mol
- IC50 [2, 4]: 20.4 ± 4.13 µM
Compound: Cc1n[nH]c(Cl)c1-c1cccc2cccnc12 [SEL101928]

Compound: N#Cc1c[nH]c2ccccc12 [SFL000013]
- FPPHR % at 50 μM [1]: 18.13%
- FPPHR % at 100 μM [1]: 21.53%
- FPPHR % at 300 μM ± SD (N = 3) ([1]; fragment 300 μM in Running Buffer, injected 30 μM 8-ANS / 20 μM TTR, hit cut-off 10%): 23.08 ± 6.08%
- Confirmed by X-ray [3]: Yes 2 Sites, Full, 9H7G

- FPPHR % at 100 μM [1]: 12.12%
Compound: c1ccc2[nH]ncc2c1 [SFL000101]

- FPPHR % at 100 μM [1]: 17.18%
Compound: c1ccc2[nH]ccc2c1 [SFL001004]

- FPPHR % at 100 μM [1]: 6.22%
Compound: c1cncc(-c2nc3ccccc3[nH]2)c1 [SFL001465]

- FPPHR % at 50 μM [1]: 1.88%
Compound: CN(C)Cc1c[nH]c2ncccc12 [SFL001519]

- FPPHR % at 100 μM [1]: 18.42%
Compound: c1ccc2nc(-c3cn[nH]c3)ccc2c1 [SFL001536]

- IC50 [2, 4]: 488 ± 107 µM
- Confirmed by X-ray [3]: Yes 9H7J
Compound: Cc1n[nH]c(N)c1-c1ccccc1 [SFL001561]

- FPPHR % at 50 μM [1]: 7.42%
Compound: Cc1nn(C)c(N)c1-c1ccccc1 [SFL001562]

- FPPHR % at 100 μM [1]: 5.29%
Compound: c1ncc2[nH]cnc2n1 [SFL001639]

- FPPHR % at 100 μM [1]: 4.78%
Compound: N#Cc1ncnc2nc[nH]c12 [SFL001640]

Compound: O=C(O)c1ccc2nc(-c3cc(Cl)cc(Cl)c3)oc2c1 [Tafamidis, reference compound]
- change of free 8-ANS peak height with compound in the Running Buffer [1]: significant free 8-ANS peak height increase

Compound: N[C@@H](Cc1cc(I)c(Oc2cc(I)c(O)c(I)c2)c(I)c1)C(=O)O [Thyroxine T4, reference compound]
- change of free 8-ANS peak height with compound in the Running Buffer [1]: significant free 8-ANS peak height increase

Compound: COc1ccc(CCN(C)CCCC(C#N)(c2ccc(OC)c(OC)c2)C(C)C)cc1OC (stereo not drawn) [Verapamil, reference compound]
- change of free 8-ANS peak height with compound in the Running Buffer [1]: changed minimally
